Test systems include OVCAR-4 ovarian; SF-268 CNS; EKVX NSCLC; NCI-H522 lung; RXF 393 renal; NCI-H460 lung; ACHN renal; KM12 colon; NCI-H226 lung; A498 renal.
What all share (assay): growth of human tumour cells (NCI), 48 h

Values joined by “and” are separate entries in the source; they are usually repeats but may differ in a detail not shown here. Identical values can stand only once.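 Exposure lasted 48 hours, with cells grown in 96-well plates and compounds tested at five concentrations. Here, GI50 denotes the concentration required for 50% inhibition of growth. TGI marks complete inhibition of growth.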 Where a SMILES comes first, the peptide text is derived from it. The star is where a group is joined. Boc = CC(C)(C)OC(=O)*

Regarding `COc1ccc(Cn2c(N)c(S(=O)(=O)c3ccc(Cl)cc3)c3nc(C#N)c(C#N)nc32)cc1`, the GI50 is 25.2 µM in the experiment on OVCAR-4 ovarian; 9.25 µM with SF-268 CNS; over 50 µM in the experiment on EKVX NSCLC; 5.82 µM in the experiment on NCI-H522 lung; 1.45 µM in the experiment with RXF 393 renal; 2.94 µM in the experiment with NCI-H460 lung. Besides, the GI50 was 6.22 µM in the experiment on ACHN renal and 28 µM in the experiment with KM12 colon. In addition, the TGI in the experiment on OVCAR-4 ovarian is over 50 µM; in the experiment with SF-268 CNS, 42.3 µM; with EKVX NSCLC, over 50 µM; with NCI-H522 lung, over 50 µM; in the experiment with RXF 393 renal it was 5.37 µM; in the experiment on NCI-H460 lung, over 50 µM. Besides, the TGI with ACHN renal and with KM12 colon was over 50 µM throughout.
Take `COc1cccc2c1C(=O)c1c(O)c3c(c(O)c1C2=O)C[C@@](O)(/C(C)=N/NC(=O)c1ccc(Cl)cc1)C[C@@H]3OC1CC(N)C(O)C(C)O1` (some centres not stated): the GI50 was 0.348 µM with OVCAR-4 ovarian; 0.187 µM in the experiment on NCI-H226 lung; 0.129 µM in the experiment with A498 renal; 0.181 µM in the experiment on ACHN renal; 0.326 µM with KM12 colon. For the same molecule, the TGI with OVCAR-4 ovarian was 2.31 µM; with NCI-H226 lung it was 0.897 µM; with A498 renal, 0.625 µM; in the experiment on ACHN renal, 1.43 µM; in the experiment with KM12 colon, 2.44 µM.
In the case of `O=C(CNS(=O)(=O)Cc1ccccc1)NNc1ccccc1`, the TGI in the experiment on OVCAR-4 ovarian, with SF-268 CNS, in the experiment with EKVX NSCLC, with NCI-H226 lung, in the experiment on NCI-H522 lung and with RXF 393 renal was over 100 µM each time. Besides, the TGI in the experiment with NCI-H460 lung, with ACHN renal and in the experiment with KM12 colon was over 100 µM throughout.
`[N-]=[N+]=N/C1=C/CCCCC(=O)C1`: the TGI in the experiment with OVCAR-4 ovarian, in the experiment with SF-268 CNS, in the experiment on EKVX NSCLC, with NCI-H522 lung, in the experiment on RXF 393 renal and in the experiment on NCI-H460 lung was over 100 µM throughout.
With `C=CCN1CCC23c4c5ccc(O)c4OC2C(=NN=C2CCC4(O)C6Cc7ccc(O)c8c7C4(CCN6CC=C)C2O8)CCC3(O)C1C5` (configuration not stated), the TGI was 40.8 µM in the experiment with OVCAR-4 ovarian; over 100 µM with SF-268 CNS; over 100 µM in the experiment on EKVX NSCLC; over 100 µM with NCI-H226 lung; 72.1 µM with NCI-H522 lung; 41.5 µM with A498 renal. Also, the TGI with NCI-H460 lung came to 43.7 µM; with ACHN renal, 41.2 µM; in the experiment with KM12 colon it was 42.4 µM.
For `C[C@H]1CN[C@@H]2[C@@H](C)[C@H]3[C@@H](C[C@H]4[C@@H]5CC[C@H]6C[C@@H](N)CC[C@]6(C)[C@H]5CC[C@]34C)O[C@@]2(O)C1`, the TGI in the experiment with OVCAR-4 ovarian stood at 17.5 µM; in the experiment on SF-268 CNS, 7.15 µM; with EKVX NSCLC, 14.9 µM; in the experiment with NCI-H226 lung it was 5.77 µM; in the experiment with NCI-H522 lung it was 5.91 µM; in the experiment with A498 renal, 1.44 µM. The TGI was 7.78 µM in the experiment with NCI-H460 lung, 9.3 µM in the experiment with ACHN renal and 11.1 µM in the experiment with KM12 colon.
With `O=C(Nc1ccc(Cl)c(C(F)(F)F)c1)c1ccc(NC2=C(Cl)C(=O)N(Cc3ccccc3)C2=O)cc1`, the GI50 with OVCAR-4 ovarian was 11.4 µM; in the experiment on SF-268 CNS, 2.76 µM; in the experiment with EKVX NSCLC, 11.5 µM; in the experiment on NCI-H226 lung it was 23.1 µM; in the experiment on NCI-H522 lung, 2.18 µM; in the experiment with NCI-H460 lung it was 7.04 µM. Also, the GI50 is 4.18 µM in the experiment on ACHN renal and 20.3 µM with KM12 colon. In addition, the TGI was found to be 69.9 µM with OVCAR-4 ovarian; 9.02 µM with SF-268 CNS; 34.5 µM in the experiment on EKVX NSCLC; 53 µM in the experiment with NCI-H226 lung; 5.54 µM with NCI-H522 lung; 42.3 µM in the experiment with NCI-H460 lung. For the same molecule, the TGI with ACHN renal was 15.2 µM; with KM12 colon, 47.3 µM.
Regarding `Cc1nc2cc(Nc3nc(Nc4ccc(F)cc4)nc(-c4cccs4)n3)ccc2n1Cc1ccccc1`, the GI50 was 3.24 µM in the experiment on OVCAR-4 ovarian; 9.74 µM in the experiment with SF-268 CNS; 8.23 µM in the experiment on NCI-H226 lung; 2.66 µM with NCI-H522 lung; 5.41 µM in the experiment with A498 renal; 3.78 µM in the experiment on NCI-H460 lung. The figures for the GI50 in the experiment with ACHN renal and in the experiment with KM12 colon were 3.86 µM and 3.12 µM, respectively. Also, the TGI in the experiment with OVCAR-4 ovarian is 34.8 µM; in the experiment with SF-268 CNS, over 100 µM; in the experiment on NCI-H226 lung, 36.5 µM; with NCI-H522 lung it was 9.16 µM; with A498 renal, 73.3 µM; in the experiment with NCI-H460 lung it was 20.4 µM. For the same molecule, the TGI with ACHN renal amounted to 59.9 µM; with KM12 colon it was 16.7 µM.
Regarding `CN(C)CCC(=O)C(=Cc1ccc(O)cc1)C(=O)CCN(C)C`, the GI50 in the experiment on OVCAR-4 ovarian was 26.2 µM; with SF-268 CNS it was over 100 µM; in the experiment with EKVX NSCLC it was over 100 µM; with NCI-H226 lung, over 100 µM; with NCI-H522 lung it was 16.4 µM; with RXF 393 renal it was over 100 µM. Also, the GI50 is over 100 µM with NCI-H460 lung, over 100 µM with ACHN renal and 41.9 µM in the experiment with KM12 colon. In addition, the TGI was over 100 µM in the experiment on OVCAR-4 ovarian; over 100 µM in the experiment on SF-268 CNS; over 100 µM in the experiment with EKVX NSCLC; over 100 µM in the experiment on NCI-H226 lung; 38.9 µM with NCI-H522 lung; over 100 µM with RXF 393 renal. Besides, the TGI with NCI-H460 lung, with ACHN renal and in the experiment with KM12 colon was over 100 µM in each case.
On to `O=C1CCC(=O)c2c1c(O)c1ccncc1c2O`, for which the TGI in the experiment on OVCAR-4 ovarian worked out at 25.6 µM; in the experiment on EKVX NSCLC it was 47.6 µM; in the experiment on NCI-H226 lung, 45.3 µM; in the experiment on NCI-H522 lung, 24.5 µM; with RXF 393 renal it was 35.6 µM; with NCI-H460 lung, 30.7 µM. Also, the results for the TGI in the experiment with ACHN renal and with KM12 colon were 28.6 µM and 38.9 µM, respectively.
Take `COC(=O)C(C)NC(=O)C(CCSC)NC(=O)C(Cc1ccccc1)NC(=O)OC(C)(C)C` (stereo not drawn) (Boc-Phe-Met-Ala-OMe; configuration not given here): the TGI in the experiment with OVCAR-4 ovarian was over 100 µM; in the experiment on SF-268 CNS, over 100 µM; in the experiment on NCI-H226 lung it was over 100 µM; in the experiment on NCI-H460 lung it was over 100 µM; in the experiment with ACHN renal, over 100 µM; with KM12 colon it was 51.1 µg/mL and > 100 µM. For the same molecule, the GI50 is 42.3 µg/mL with SF-268 CNS, 13.1 µg/mL in the experiment with NCI-H522 lung, 40.6 µg/mL with NCI-H460 lung and 22.4 µg/mL with KM12 colon.

Source of the values: PubChem BioAssay (NCI).
